From PubChem BioAssay AID248 (DTP/NCI, 2004)
Values joined by “and” are separate entries in the source; they are usually repeats but may differ in a detail not shown here. Equal entries are not always repeated. Toxic doses and inconclusive results are not listed. Rule as the data show it: active = T/C of 150% or more; inactive = T/C below 125%.

Tested on: L1210 leukemia ip in BDF1 mice, survival T/C
Assay: NCI In Vivo Anticancer Drug Screen. Data for tumor model L1210 Leukemia (intraperitoneal) in B6D2F1 (BDF1) mice
Settings: endpoint: mean survival time, higher = longer survival
How it was run: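 In this screen, tumor-bearing mice given compound are compared to those given vehicle, and their survival values are reported as a treated-to-control quotient.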

[1] = dose: 100.0 mg/kg/injection, schedule: Q01DX001 (ip), vehicle: carboxymethylcellulose (CMC)
[2] = dose: 200.0 mg/kg/injection, schedule: Q01DX001 (ip), vehicle: carboxymethylcellulose (CMC)
[3] = dose: 400.0 mg/kg/injection, schedule: Q01DX001 (ip), vehicle: carboxymethylcellulose (CMC)
[4] = dose: 100.0 mg/kg/injection, schedule: Q01DX001 (ip), vehicle: Klucel (hydroxypropylcellulose) (HPC)
[5] = dose: 200.0 mg/kg/injection, schedule: Q01DX001 (ip), vehicle: Klucel (hydroxypropylcellulose) (HPC)
[6] = dose: 100.0 mg/kg/injection, schedule: Q01DX009 (ip), vehicle: Klucel (hydroxypropylcellulose) (HPC)
[7] = dose: 100.0 mg/kg/injection, schedule: Q04DX003 (ip), vehicle: Klucel (hydroxypropylcellulose) (HPC)
[8] = dose: 200.0 mg/kg/injection, schedule: Q01DX009 (ip), vehicle: Klucel (hydroxypropylcellulose) (HPC)
[9] = dose: 200.0 mg/kg/injection, schedule: Q04DX003 (ip), vehicle: Klucel (hydroxypropylcellulose) (HPC)
[10] = dose: 400.0 mg/kg/injection, schedule: Q04DX003 (ip), vehicle: Klucel (hydroxypropylcellulose) (HPC)
[11] = dose: 400.0 mg/kg/injection, schedule: Q01DX009 (ip), vehicle: Klucel (hydroxypropylcellulose) (HPC)
[12] = dose: 50.0 mg/kg/injection, schedule: Q01DX009 (ip), vehicle: Klucel (hydroxypropylcellulose) (HPC)
[13] = dose: 25.0 mg/kg/injection, schedule: Q01DX009 (ip), vehicle: Klucel (hydroxypropylcellulose) (HPC)
[14] = dose: 100.0 mg/kg/injection, schedule: Q01DX009 (ip), vehicle: saline
[15] = dose: 200.0 mg/kg/injection, schedule: Q01DX009 (ip), vehicle: saline
[16] = dose: 100.0 mg/kg/injection, schedule: Q04DX002 (ip), vehicle: Klucel (hydroxypropylcellulose) (HPC)
[17] = dose: 200.0 mg/kg/injection, schedule: Q04DX002 (ip), vehicle: Klucel (hydroxypropylcellulose) (HPC)
[18] = dose: 400.0 mg/kg/injection, schedule: Q04DX002 (ip), vehicle: Klucel (hydroxypropylcellulose) (HPC)

Measured: T/C

Clc1ccc2c(NC3CCC(NC4CCCCC4)CC3)ccnc2c1 (stereo not drawn)
inactive: dose: 7.0 mg/kg/injection, schedule: Q01DX Z (ip), vehicle: carboxymethylcellulose (CMC) 102 % of control | dose: 10.0 mg/kg/injection, schedule: Q01DX Z (ip), vehicle: carboxymethylcellulose (CMC) 96 % of control | dose: 16.0 mg/kg/injection, schedule: Q01DX Z (ip), vehicle: carboxymethylcellulose (CMC) 98 % of control

COc1ccc(OC)c2c1C=CCC2
inactive: [1] 96 % of control | [2] 91 % of control | [3] 104 % of control

CCOC(=O)Cn1c(=O)c2ccccc2c2cc(Br)ccc21
inactive: [4] 89 % of control | [5] 100 % of control | dose: 400.0 mg/kg/injection, schedule: Q01DX001 (ip), vehicle: Klucel (hydroxypropylcellulose) (HPC) 92 % of control

Cc1cccc(C)c1NC(=O)Oc1ccccc1C(N)=O
inactive: [6] 97 % of control | [7] 98 % of control | [8] 100 % of control | [9] 104 % of control | [10] 94 % of control

O=c1[nH]c2cscc2c(=O)n1OS(=O)(=O)c1ccccc1
inactive: [6] 93 % of control | [8] 95 % of control | [11] 100 % of control

COc1ccc([N+](=O)[O-])cc1NC(=O)Nc1ccccc1C(N)=O
inactive: [12] 105 % of control | [6] 101 % of control | [8] 97 % of control

Cc1ccc(C)c(NC(=O)Oc2ccc(Cl)cc2Cl)c1
inactive: [13] 87 % of control | [12] 100 % of control | [6] 110 % of control | [7] 90 % of control | [9] 94 % of control | [10] 106 % of control

CN1CN(c2ccccc2)C2(CCN(C(=O)/C=C/c3ccc(F)cc3)CC2)C1=O
inactive: dose: 75.0 mg/kg/injection, schedule: Q04DX003 (ip), vehicle: Klucel (hydroxypropylcellulose) (HPC) 92 % of control | dose: 150.0 mg/kg/injection, schedule: Q04DX003 (ip), vehicle: Klucel (hydroxypropylcellulose) (HPC) 88 % of control

Nc1ccc(Cl)cc1C(=O)c1ccccn1
inactive: dose: 100.0 mg/kg/injection, schedule: Q04DX003 (ip), vehicle: saline with Tween-80 100 % of control | dose: 200.0 mg/kg/injection, schedule: Q04DX003 (ip), vehicle: saline with Tween-80 108 % of control | dose: 400.0 mg/kg/injection, schedule: Q04DX003 (ip), vehicle: saline with Tween-80 97 % of control

CCCCCCCCCCCCCCCCCCCC(=O)CCl
inactive: dose: 100.0 mg/kg/injection, schedule: Q04DX002 (sc), vehicle: olive oil, sesame oil, peanut oil 104 % of control | dose: 200.0 mg/kg/injection, schedule: Q04DX002 (sc), vehicle: olive oil, sesame oil, peanut oil 100 % of control | dose: 400.0 mg/kg/injection, schedule: Q04DX002 (sc), vehicle: olive oil, sesame oil, peanut oil 107 % of control

COC1=Nc2ccccc2/C=C\c2ccccc21
inactive: dose: 100.0 mg/kg/injection, schedule: Q04DX002 (ip), vehicle: carboxymethylcellulose (CMC) 96 % of control | dose: 200.0 mg/kg/injection, schedule: Q04DX002 (ip), vehicle: carboxymethylcellulose (CMC) 89 % of control | dose: 400.0 mg/kg/injection, schedule: Q04DX002 (ip), vehicle: carboxymethylcellulose (CMC) 89 % of control

OCCCN=Cc1cc(Cl)cc(Cl)c1O
inactive: dose: 100.0 mg/kg/injection, schedule: Q01DX001 (ip), vehicle: saline 98 % of control | dose: 200.0 mg/kg/injection, schedule: Q01DX001 (ip), vehicle: saline 95 % of control | dose: 400.0 mg/kg/injection, schedule: Q01DX001 (ip), vehicle: saline 93 % of control

CCCCCCCCCCCCCCCCCCNC(=O)C[N+](C)(C)Cc1ccccc1
inactive: dose: 3.13 mg/kg/injection, schedule: Q01DX009 (ip), vehicle: saline with Tween-80 93 % of control | dose: 6.25 mg/kg/injection, schedule: Q01DX009 (ip), vehicle: saline with Tween-80 98 % of control | dose: 12.5 mg/kg/injection, schedule: Q01DX009 (ip), vehicle: saline with Tween-80 89 % of control

O=S(=O)(NO)c1cccc(S(=O)(=O)NO)c1
inactive: [14] 97 % of control | [7] 89 % of control | [15] 87 % of control | [9] 95 % of control | [10] 92 % of control

CCN(CC)Cc1ccccc1COC(=O)c1cccc(C)c1
inactive: dose: 50.0 mg/kg/injection, schedule: Q04DX002 (ip), vehicle: saline 93 % of control | dose: 100.0 mg/kg/injection, schedule: Q04DX002 (ip), vehicle: saline 90 % of control | dose: 200.0 mg/kg/injection, schedule: Q04DX002 (ip), vehicle: saline 93 % of control

O=C(c1ccccc1)C1(Br)CCC1
inactive: dose: 100.0 mg/kg/injection, schedule: Q01DX009 (ip), vehicle: saline sonified 101 % of control | dose: 200.0 mg/kg/injection, schedule: Q01DX009 (ip), vehicle: saline sonified 97 % of control | dose: 400.0 mg/kg/injection, schedule: Q01DX009 (ip), vehicle: saline sonified 101 % of control

CC(=O)OCCC/C(=C\c1ccc(N(C)C)cc1)[N+](=O)[O-]
inactive: [1] 91 % of control | [2] 91 % of control | [3] 98 % of control

CCC(=O)O[C@H]1CC[C@H]2[C@@H]3CCC4=CC(=O)CC[C@]4(C)[C@H]3CC[C@]12C
inactive: dose: 125.0 mg/kg/injection, schedule: Q01DX Z (sc), vehicle: steriod suspending solution 101 % of control and 106 % of control | dose: 250.0 mg/kg/injection, schedule: Q01DX Z (sc), vehicle: steriod suspending solution 97 % of control and 112 % of control | dose: 500.0 mg/kg/injection, schedule: Q01DX Z (sc), vehicle: steriod suspending solution 101 % of control and 103 % of control | dose: 500.0 mg/kg/injection, schedule: Q01DX Z (sc), vehicle: water 95 % of control | dose: 1000.0 mg/kg/injection, schedule: Q01DX Z (sc), vehicle: steriod suspending solution 100 % of control | dose: 1000.0 mg/kg/injection, schedule: Q01DX Z (sc), vehicle: water 97 % of control

CCn1c(=O)cn[nH]c1=O
inactive: dose: 50.0 mg/kg/injection, schedule: Q01DX009 (ip), vehicle: saline 97 % of control | [14] 97 % of control | [15] 94 % of control

COC(=O)C(CCC(=O)O)NC(=O)OCc1ccccc1 (stereo not drawn)
inactive: [13] 89 % of control | dose: 50.0 mg/kg/injection, schedule: Q01DX001 (ip), vehicle: Klucel (hydroxypropylcellulose) (HPC) 94 % of control | [12] 97 % of control | [4] 103 % of control | [7] 96 % of control | [5] 97 % of control | [9] 86 % of control

COc1ccc(Cl)cc1NC(=O)Nc1cc(Cl)c(Cl)cc1C
inactive: [6] 102 % of control | [7] 95 % of control | [8] 100 % of control | [9] 94 % of control | [11] 97 % of control | [10] 94 % of control

O=S(=O)(c1ccccc1)S(=O)(=O)c1ccccc1
inactive: [6] 107 % of control | [16] 105 % of control | [8] 88 % of control | [17] 86 % of control | [11] 96 % of control | [18] 90 % of control

O=c1scc(-c2ccccc2)s1
inactive: [16] 113 % of control | [17] 88 % of control | [18] 106 % of control
